Test results as given in patent publication EP0253314B1, “Peptidase and process for producing the same” (SUNTORY LIMITED, priority 1986, dated 1988).
Non-standard residues stand in square brackets, D forms with d. Residues, ends and D or L forms follow the SMILES beside them. *: point of attachment. Sta = CC(C)C[C@H](N)[C@@H](O)CC(=O)O; Isovaleryl = CC(C)CC(=O)*

Tests used:
[1] = tested on: peptidase of the present invention; format: biochemical, Saccharomyces cerevisiae; design: key to Inhibition: - indicates that the reaction was not inhibited; details: for Inhibition: pH 4
[2] = tested on: enzyme of the present invention; assay: Substrate specificity of enzyme (percentage of cleaved substrate by HPLC); format: biochemical, Saccharomyces cerevisiae; details: 24 hours at 30°C in 0.05 M acetate buffer (pH 4.0); DEAE-Sephacel fraction eluted with 0.2 M NaCl
α-MF = α-MF produced at a level of several µg/ml; reacted for 24 hours; prior-art culture activity; cited from earlier work

| Compound | Response to inhibitor (inhibition of the enzyme, in words) [1] | Inhibition [1] | % Cleavage [2] | α-MF cleaved (α-MF) |
| --- | --- | --- | --- | --- |
| CC(C)CC(=O)N[C@H](C(=O)N[C@H](C(=O)N[C@@H](CC(C)C)[C@@H](O)CC(=O)N[C@@H](C)C(=O)N[C@@H](CC(C)C)[C@@H](O)CC(=O)O)C(C)C)C(C)C [Pepstatin, pepstatin] (Isovaleryl-VV[Sta]A[Sta]-OH) | not inhibited | - |  |  |
| Cys - Tyr - Ile - Gln - Asn - Cys - Pro - Leu - Gly - NH2 [oxytocin] |  |  | 0% |  |
| O=C(O)CN(CCN(CC(=O)O)CC(=O)O)CC(=O)O [EDTA] | not inhibited | - |  |  |
| Cc1ccc(S(=O)(=O)N[C@@H](CCCCN)C(=O)CCl)cc1 [TLCK, tosyl - L - lysine chloromethyl ketone] | inhibited neither | - |  |  |
| C[C@@H](O)[C@H](N)C(=O)N[C@@H](CCCCN)C(=O)N1CCC[C@H]1C(=O)N[C@@H](CCCNC(=N)N)C(=O)O [tuftsin, Thr - Lys - Pro - Arg] (H-TKPR-OH) |  |  | 0% |  |
| Ser - Leu - Arg - Arg - Ser - Ser - Cys - Phe - Gly - Gly - Arg - Met - Asp - Arg - Ile - Gly - Ala - Gln - Ser - Gly - Leu - Gly - Cys - Asn - Ser - Phe - Arg - Tyr [α-hamp] |  |  | 0% |  |
| Tyr - Gly - Gly - Phe - Met - Thr - Ser - Glu - Lys - Ser - Gln - Thr - Pro - Leu - Val - Thr - Leu [β-endorphin] |  |  | 0% |  |
| O=S(=O)(F)Cc1ccccc1 [PMSF, phenylmethylsulfonyl fluoride] | inhibited neither | - |  |  |
| pGlu - Leu - Tyr - Glu - Asn - Lys - Pro - Arg - Arg - Pro - Tyr - Ile - Leu [neurotensin] |  |  | 0% |  |
| Ser - Glu - Glu - Pro - Pro - Ile - Ser - Leu - Asp - Leu - Thr - Phe - His - Leu - Leu - Arg - Glu - Val - Leu - Glu - Met - Ala - Arg - Ala - Glu - Gln - Leu - Ala - Gln - Gln - Ala - His - Ser - Asn - Arg - Lys - Leu - Met - Glu - Ile - Ile - NH2 [CRF] |  |  | 0% |  |
| Trp - Gly - Gly - Phe - Leu - Arg - Arg - Ile - Arg - Pro - Lys - Leu - Lys - Trp - Asp - Asn - Gln [dynorphin] |  |  | not less than 90% |  |
| Trp - His - Trp - Leu - Gln - Leu - Lys - Pro - Gly - Gln - Pro - Met - Tyr [α-MF] |  |  | not less than 90% | about 50% |
| O=C(O)CI [monoiodoacetic acid] | inhibited neither | -* |  |  |
| CC(=O)N[C@@H](CC(C)C)C(=O)N[C@@H](CC(C)C)C(=O)N[C@H](C=O)CCCNC(=N)N [Leupeptin, leupeptin] | inhibited neither | - |  |  |
| O=C(O)c1cc[c]([Hg][Cl])cc1 [PCMB, p-chloro-mercuribenzoic acid] | inhibited neither | - |  |  |
